Data reported in patent publication US8815945B2, “Use of bis [thiohydrazide amide] compounds such as elesclomol for treating cancers” (priority 2010, dated 2014).

Columns and labels:
CoCl2-treated M14 cells = assay: Cell viability of CoCl2-treated M14 cells with elesclomol and oxamate (FIG. 10, 11); format: cell-based; details: 50 nM elesclomol, 50 μM CoCl2, 25 mM oxamate, 48 h
Procedure: By inhibiting LDH, the conversion of pyruvate to lactate is shut down, as illustrated in the left panel of FIG. 10. Oxamate, a pyruvate analog and LDH-A inhibitor, was tested on CoCl2-treated M14 cells as illustrated in the right panel of FIG. 10. Cell viability was assessed after 48 h incubation with or without elesclomol and oxamate.
Cell viability was assessed after 48 h incubation with or without 50 nM elesclomol in the presence or absence of 50 μM CoCl2 and 25 mM oxamate.

Caki-2 cells = assay: Cell viability by CellTiter Glo ATP assay at 24 h, Caki-2 cells (FIG. 6b); format: cell-based; details: HIF-1α-high Caki-2 cells, 2,500 cells/well
Procedure: (§1) To further investigate a correlation between HIF-1α and elesclomol potency, lines within the same cancer phenotype but showing distinct levels of HIF1α were evaluated. Caki-1 and -2 are renal cancer cell lines established from the same patient; Caki-2 cells constitutively express HIF-1α while the expression in Caki-1 cells is conditional. VHL protein is a negative regulator of HIF-1α, and a VHL mutation accompanies constitutive HIF-1α expression. In FIG. 6a, cells were serially diluted to the densities indicated. Cell lysates were harvested for ELISA at 24 h after seeding. In FIG. 6b, cells were seeded at 2,500 cells/well-96 plate. Cell viability was evaluated by CellTiter Glo ATP assay at 24 h.

Caki-1 cells = assay: Cell viability by CellTiter Glo ATP assay at 24 h, Caki-1 cells (FIG. 6b); format: cell-based; details: HIF-1α-low Caki-1 cells, 2,500 cells/well
Procedure: as §1

[1] = tested on: M14 (MDA-MB-435) melanoma cells; assay: Cell viability of sparse and dense M14 (MDA-MB-435) melanoma cells under normoxia or hypoxia (FIG. 5b); format: cell-based; details: normoxia (20%) or hypoxia (0.1%), viability at 48 h by cellular ATP
Procedure: In hypoxic cells, stabilized HIF-1α shunts away energy carbon flow from mitochondria (illustrated graphically in FIG. 4.). The regulatory subunit of HIF-1α is stabilized under hypoxic conditions, and thus-stabilized HIF-1α forms active HIF-1 (HIF-1α/1b heterodimer), whereupon HIF-1 induces LDH-A to convert pyruvate to lactate. The potency of the bis[thiohydrazide amide] compound elesclomol on sparse and dense melanoma cells was assayed under hypoxic and normoxic conditions. Total HIF-1α (cytosolic+nuclear, FIG. 5a) and cell viability of M14 (MDA-MB-435) melanoma cells (FIG. 5b) was evaluated at 12 h and 48 h by ELISA (R&D systems) and cellular ATP levels (CellTiter Glo-Promega), respectively, under normoxia (20%) or hypoxia (0.1%) with sparse (2 k cells/well) or dense (20 k cells/well) in 96-well plates.

metastatic melanoma = assay: Phase 3 trial in metastatic melanoma, stratified by baseline LDH; format: in vivo, patients; details: for median PFS: elesclomol arm
Source text: In a Phase 3 trial in metastatic melanoma, the level of baseline lactate dehydrogenase (LDH) in patients emerged as an important prognostic factor for treatment outcomes with elesclomol. A differential response to treatment with elesclomol was shown, based on the level of baseline LDH in the plasma, an established prognostic biomarker in melanoma and a pre-specified stratification variable in the trial.

M14 melanoma cells = assay: Cell viability (CCK8 assay) in M14 melanoma cells; format: cell-based; details: Homo sapiens, confluent M14 cells, 48 h incubation
Procedure: M14 melanoma cells were seeded at 50,000 cells per well of 96-well plate in 100 μl of Dulbecco's […] (DMEM) supplemented with 10% fetal bovine serum. Cells were cultured at 37° C. under 5% CO2-95% air. After 16 hours of incubation, the test compound was added to the cell culture. The compound was first diluted in 100% dimethyl sulfoxide (DMSO) at 400-fold of the final concentrations actually used in the assay. The DMSO solution was next diluted 20 fold with the culture medium, and then finally added to the assay wells at another 20-fold dilution. Assay medium included the test compound with concentrations as indicated with 0.25% DMSO. Cell viability was measured with a CCK8 assay (as described in the Technical Manual for Cell Counting Kit-8, Product #CK04-11, CK04-13 and CK04-20, Dojindo Molecular Technologies, Inc. MD; Tantular, I. S. et al. Tropical Medicine and International Health, 8(6), 569-574, 2003) in the last 15 minutes after a 48 h incubation with the test compound. Each bar of the figure expresses average percent inhibition against vehicle (0.25% DMSO) control (n=4). Error bars indicate standard deviation.

769-P = assay: Cell viability (CellTiter Glo ATP) with elesclomol under normoxia/hypoxia, 769-P; format: cell-based; details: 769-P cell line, which did not elevate LDH-A activity under hypoxic conditions
Procedure: FIG. 7 illustrates experimental work done with a variety of cells showing how high levels of HIF-1α and LDH-A activity correlate with the reduced sensitivity to elesclomol. FIGS. 7a and 7b show the reductive (i.e., pyruvate to lactate) LDH activity and HIF-1α level under normoxic and hypoxic conditions. The cells set forth in the Figures and in Table 1, below were seeded at 2 k cells/well in a 96-well plate and cultured under normoxic (20% O2) and hypoxic (0.1% O2) conditions to determine their LDH activity and HIF-1α level. LDH-A activity (measuring reduction of pyruvate to lactate by monitoring NADH at 340 nm) and HIF-1α were analyzed at 24 h. […] An experiment was then run to treat these same cell lines with vehicle or 50 nM elesclomol under normoxic (20% O2) and hypoxia (0.1% O2) conditions for 36 h (FIG. 7d.) Cell viability was evaluated by cellular ATP (CellTiter Glo, Promega).

HIF-1α = format: cell-based

Structure (SMILES): CN(NC(=O)CC(=O)NN(C)C(=S)c1ccccc1)C(=S)c1ccccc1 [elesclomol, N-malonyl-bis(N′-methyl-N′-thiobenzoylhydrazide)]
- elesclomol activity upon co-treatment with oxamate (cell viability) (CoCl2-treated M14 cells): remains active
- sensitivity of cells to elesclomol (Caki-2 cells): resistant
- sensitivity of cells to elesclomol (Caki-1 cells): sensitive
- potency of elesclomol, normoxia vs hypoxia [1]: increased potency
- survival endpoint (metastatic melanoma; elevated LDH population): negative impact
- median PFS (metastatic melanoma; elevated LDH population, 32% of patients): 1.8 months
- PFS HR (metastatic melanoma; elevated LDH population, p=0.549): 1.10
- overall survival (metastatic melanoma; normal LDH population): no impact on overall survival
- safety profile (metastatic melanoma; normal LDH population): acceptable safety profile
- median PFS (metastatic melanoma; normal LDH population, 68% of patients): 3.6 months
- PFS HR (metastatic melanoma; normal LDH population, p=0.027): 0.76
- IC50 (M14 melanoma cells): > 12.5 µM
- change in sensitivity to elesclomol under hypoxic conditions (769-P): no change

Structure (SMILES): [Cl-].[Cl-].[Co+2] [CoCl2]
- HIF-1α level (HIF-1α): increases
- reductive LDH activity (HIF-1α): increased
